Assay results from ChEMBL document CHEMBL1146583, “Acetylenic acids inhibiting azole-resistant Candida albicans from Pentagonia gigantifolia” (J Nat Prod, 2003).
In brackets after ≈: the same amount, converted by molar mass. Activity calls are given as the source filed them. The calls are words filed in the database; no cut-off is given here.

Legend:
[1] = system: Candida albicans; test: Antifungal activity against Candida albicans ATCC 90028 after 24 to 48 hrs by NCCLS method; format: functional, organism-based
[2] = system: Candida albicans; test: Antifungal activity against Candida albicans ATCC 90028 by sphingolipid reversal assay in presence of 5 ug/mL stearylamine; format: functional, organism-based
[3] = system: Candida albicans; test: Antifungal activity against Candida albicans ATCC 90028 by sphingolipid reversal assay in presence of 15 ug/mL stearylamine; format: functional, organism-based
[4] = system: Candida albicans; test: Antifungal activity against Candida albicans ATCC 90028 by sphingolipid reversal assay in presence of 30 ug/mL stearylamine; format: functional, organism-based
[5] = system: KB; test: Cytotoxicity against human KB cells at 10 ug/mL; format: functional, cell-based
[6] = system: SK-MEL; test: Cytotoxicity against human SK-MEL cells at 10 ug/mL; format: functional, cell-based
[7] = system: BT-549; test: Cytotoxicity against human BT549 cells at 10 ug/mL; format: functional, cell-based
[8] = system: SK-OV-3; test: Cytotoxicity against human SKOV3 cells at 10 ug/mL; format: functional, cell-based
[9] = system: Vero; test: Cytotoxicity against african green monkey Vero cells at 10 ug/mL; format: cell-based; conditions: chlorocebus sabaeus
[10] = system: Candida albicans; test: Antifungal activity against fluconazole-susceptible Candida albicans isolate 1 after 24 to 48 hrs by NCCLS method; format: functional, organism-based; conditions: for IC50 / IC80: Candida albicans
[11] = system: Candida albicans; test: Antifungal activity against fluconazole-resistant Candida albicans isolate 2 after 24 to 48 hrs by NCCLS method; format: functional, organism-based; conditions: for IC50 / IC80: Candida albicans
[12] = system: Candida albicans; test: Antifungal activity against fluconazole-resistant Candida albicans isolate 5 after 24 to 48 hrs by NCCLS method; format: functional, organism-based; conditions: for IC50 / IC80: Candida albicans
[13] = system: Candida albicans; test: Antifungal activity against fluconazole-resistant Candida albicans isolate 8 after 24 to 48 hrs by NCCLS method; format: functional, organism-based; conditions: for IC50 / IC80: Candida albicans
[14] = system: Candida albicans; test: Antifungal activity against fluconazole-resistant Candida albicans isolate 17 after 24 to 48 hrs by NCCLS method; format: functional, organism-based; conditions: for IC50 / IC80: Candida albicans
[15] = system: Candida albicans; test: Antifungal activity against Candida albicans ATCC 90028 by sphingolipid reversal assay in presence of 1.25 ug/mL dihydrosphingosine; format: functional, organism-based
[16] = system: Candida albicans; test: Antifungal activity against Candida albicans ATCC 90028 by sphingolipid reversal assay in presence of 2.5 ug/mL dihydrosphingosine; format: functional, organism-based
[17] = system: Candida albicans; test: Antifungal activity against Candida albicans ATCC 90028 by sphingolipid reversal assay in presence of 5.0 ug/mL dihydrosphingosine; format: functional, organism-based
[18] = system: Candida albicans; test: Antifungal activity against fluconazole-resistant Candida albicans isolate 17 at 100 ug/mL after 24 to 48 hrs by NCCLS method; format: functional, organism-based

SMILES | IC50 [1] | MIC [1] | IC50 [2] | IC50 [3] | IC50 [4] | Fungicidal [10] | IC80 [10] | Fungicidal [11] | IC50 [11] | IC80 [11] | Fungicidal [12] | IC50 [12] | IC80 [12] | Fungicidal [13] | IC50 [13] | IC80 [13] | IC50 [14] | IC50 [15] | IC50 [16] | IC50 [17] | further results
CCCCCCCCCCCCC#CCCCCC(=O)O [6-NONADECYNOIC ACID] | 0.33 µg/mL (≈ 1.12 µM) | 0.52 µg/mL (≈ 1.77 µM) | 5 µg/mL | 15 µg/mL | 35 µg/mL | 0.45 µg/mL | 0.35 µg/mL (≈ 1.19 µM) | 0.35 µg/mL | 0.25 µg/mL (≈ 0.849 µM) | 0.3 µg/mL (≈ 1.02 µM) | 0.8 µg/mL | 0.45 µg/mL (≈ 1.53 µM) | 0.6 µg/mL (≈ 2.04 µM) | 0.8 µg/mL | 0.5 µg/mL (≈ 1.7 µM) | 0.65 µg/mL (≈ 2.21 µM) | 0.45 µg/mL (≈ 1.53 µM) | 1 µg/mL | 2 µg/mL | 4.5 µg/mL | Activity [5]: inactive; Activity [6]: inactive; Activity [7]: inactive; Activity [8]: inactive; Activity [9]: Not Active; IC50 [10]: 0.25 µg/mL (≈ 0.849 µM); Fungicidal [14]: 0.7 µg/mL; IC80 [14]: 0.6 µg/mL (≈ 2.04 µM)
CCCCCCCCCCCCC#CCCCCC(=O)OC | – | – | – | – | – | – | – | – | – | – | – | – | – | – | – | – | – | – | – | – | Activity [1]: inactive
OC(Cn1cncn1)(Cn1cncn1)c1ccc(F)cc1F [FLUCONAZOLE] | – | 0.29 µg/mL (≈ 0.947 µM) | 0.65 µg/mL | 0.8 µg/mL | 0.75 µg/mL | 2 µg/mL | 0.2 µg/mL (≈ 0.653 µM) | 10 µg/mL | 1 µg/mL (≈ 3.27 µM) | 5 µg/mL (≈ 16.3 µM) | 10 µg/mL | 7.5 µg/mL (≈ 24.5 µM) | 10 µg/mL (≈ 32.7 µM) | 25 µg/mL | 15 µg/mL (≈ 49 µM) | 20 µg/mL (≈ 65.3 µM) | 40 µg/mL (≈ 131 µM) | 0.3 µg/mL | 0.5 µg/mL | 0.7 µg/mL | IC80 [14]: 95 µg/mL (≈ 310 µM); Activity [18]: inactive
C[C@@H]1[C@H](O)[C@@H](C)/C=C/C=C/C=C/C=C/C=C/C=C/C=C/[C@H](O[C@@H]2O[C@H](C)[C@@H](O)[C@H](N)[C@@H]2O)C[C@@H]2O[C@](O)(C[C@@H](O)C[C@@H](O)[C@H](O)CC[C@@H](O)C[C@@H](O)CC(=O)O[C@H]1C)C[C@H](O)[C@H]2C(=O)O [AMPHOTERICIN B] | 0.23 µg/mL (≈ 0.249 µM) | 0.52 µg/mL (≈ 0.563 µM) | – | 0.4 µg/mL | 0.65 µg/mL | – | – | – | – | – | – | – | – | – | – | – | – | – | – | – | –
CCCCCCCCCCCC#CCCCCC(=O)OC | – | – | – | – | – | – | – | – | – | – | – | – | – | – | – | – | – | – | – | – | Activity [1]: inactive
Nc1nc(=O)[nH]cc1F [FLUCYTOSINE] | 0.47 µg/mL (≈ 3.64 µM) | 1.04 µg/mL (≈ 8.06 µM) | 0.25 µg/mL | 0.2 µg/mL | 0.25 µg/mL | – | – | – | – | – | – | – | – | – | – | – | – | 0.2 µg/mL | 0.15 µg/mL | 0.1 µg/mL | –
CCCCCCCCCCCC#CCCCCC(=O)O [6-OCTADECYNOIC ACID] | 0.38 µg/mL (≈ 1.35 µM) | 1.04 µg/mL (≈ 3.71 µM) | 3.5 µg/mL | 15 µg/mL | 30 µg/mL | 0.7 µg/mL | 0.6 µg/mL (≈ 2.14 µM) | 0.75 µg/mL | 0.5 µg/mL (≈ 1.78 µM) | 0.65 µg/mL (≈ 2.32 µM) | 2 µg/mL | 0.7 µg/mL (≈ 2.5 µM) | 1 µg/mL (≈ 3.57 µM) | 1.5 µg/mL | 0.9 µg/mL (≈ 3.21 µM) | 1 µg/mL (≈ 3.57 µM) | 0.65 µg/mL (≈ 2.32 µM) | 0.7 µg/mL | 2 µg/mL | 4.5 µg/mL | Activity [5]: inactive; Activity [6]: inactive; Activity [7]: inactive; Activity [8]: inactive; Activity [9]: Not Active; IC50 [10]: 0.45 µg/mL (≈ 1.6 µM); Fungicidal [14]: 1.5 µg/mL; IC80 [14]: 1 µg/mL (≈ 3.57 µM)
